In patent US20090253719A1, “CRYSTALLINE SALT FORMS OF ANTIFOLATE COMPOUNDS AND METHODS OF MANUFACTURING THEREOF” (Chelsea Therapeutics, Inc., priority 2008, published 2009):
Blank lines part the entries; values can stand above or below the molecule they belong to.

Assays:
CCRF-CEM cells = assay: Growth inhibition of CCRF-CEM cells, continuous (120 hr) drug exposure; format: cell-based; details: Homo sapiens, continuous 120 hr exposure
Protocol: The human T-lymphoblastic leukemia cell line CCRF-CEM (described in Foley G F, et al., Cancer 1965; 18:522-9) was cultured as described in McCloskey D E, et al., J Biol Chem 1991; 266:6181-7 (both of which are incorporated herein by reference in their entirety) and verified to be negative for Mycoplasma contamination (Mycoplasma Plus PCR primers, Stratagene, La Jolla, Calif.).

[1] = Protocol: A salt screen of this compound was conducted with various pharmaceutically acceptable counterions to analyze aqueous solubility of the formed salts. Formed solids suspected of forming salts were analyzed by X-ray powder diffraction (XRPD).
[2] = Plasma concentration after oral L- or D-CH-1504 in non-fasted female Lewis rats; format: in vivo
Protocol: L- or D-CH-1504 was administered once orally to non-fasted female Lewis rats at a dose of 10 mg/kg (vehicle: 0.11% carboxymethylcellulose/0.45% TWEEN 80, formulation: suspension). About 750 μL of blood was collected from the jugular vein at 1 and 3 hours after administration. And then, whole of blood was collected from the femoral vein under diethyl ether anesthesia at 6 hours after administration. The collected blood was immediately centrifuged to obtain a plasma sample. L- and D-CH-1504 were extracted from the plasma by solid-phase extraction and were then determined with a LC/MS/MS.

[3] = Hygroscopicity study (storage at controlled relative humidity); format: physicochemical; details: 75% relative humidity for five days
Text: Hygroscopicity and approximate solubility in aqueous and buffered solutions of ammonium, besylate, calcium, esylate, sulfate, HCl, mesylate, napsylate, potassium, disodium, and tosylate salts were compared. In the hygroscopicity study, the salts were subjected to 75% relative humidity for five days.
An amorphous form was also generated. […] As described above, disodium salt Form A was a crystalline solid obtained using a water/IPA system or a water/acetone system. […] Heating was continued to achieve a temperature of 90° C. Crystallinity was not regained upon cooling to ambient.

SMILES: C=C(C[C@@H](NC(=O)c1ccc(CCc2ccc3nc(N)nc(N)c3c2)cc1)C(=O)O)C(=O)O [D-CH-1504]
EC50 (CCRF-CEM cells): 29 nM | Plasma conc. of D-CH-1504 ([2]; 1 h after 10 mg/kg oral, non-fasted female Lewis rats, individual animals): 11.0 ng/mL | concentration at 3 h ([2]; female, Lewis, rat, plasma, oral, 10 mg/kg, 3 h after 10 mg/kg oral, non-fasted female Lewis rats, individual animals, read-out: Plasma conc. of D-CH-1504): 14.3 ng/mL | concentration at 6 h ([2]; female, Lewis, rat, plasma, oral, 10 mg/kg, 6 h after 10 mg/kg oral, non-fasted female Lewis rats, individual animals, read-out: Plasma conc. of D-CH-1504): 8.34 ng/mL

SMILES: CN(Cc1cnc2nc(N)nc(N)c2n1)c1ccc(C(=O)NC(CCC(=O)O)C(=O)O)cc1 (stereo not shown) [MTX, methotrexate, reference compound]
EC50 (CCRF-CEM cells): 15 nM

SMILES: C=C(CC(NC(=O)c1ccc(CCc2ccc3nc(N)nc(N)c3c2)cc1)C(=O)O)C(=O)O.O=S(=O)(O)c1ccc2ccccc2c1 (stereo not shown) [napsylate salt]
hygroscopicity study outcome [3]: remained unchanged

Next, values leading:

EC50 (CCRF-CEM cells): 8.6 nM | solubility of free acid form [1]: poor solubility | isomerization in vivo ([2]; by 6 hours after administration of each enantiomer, all samples): could not be confirmed
SMILES: C=C(CC(NC(=O)c1ccc(CCc2ccc3nc(N)nc(N)c3c2)cc1)C(=O)O)C(=O)O (racemic) [CH-1504, 2-{4-[2-(2,4-diamino-quinazolin-6-yl)-ethyl]-benzoylamino}-4-methylene-pentanedioic acid]

EC50 (CCRF-CEM cells): 6.1 nM
SMILES: C=C(C[C@H](NC(=O)c1ccc(CCc2ccc3nc(N)nc(N)c3c2)cc1)C(=O)O)C(=O)O [L-CH-1504, (S)-2-{4-[2-(2,4-diamino-quinazolin-6-yl)-ethyl]-benzoylamino}-4-methylene-pentanedioic acid]
